Results: ChEMBL document CHEMBL3045980, “Chemistry of insect antifeedants from Azadirachta indica (part 11): Characterisation and structure activity relationships of some novel rearranged azadirachtins” (1991)

Key:
[1] = system: Spodoptera littoralis; assay: Antifeedant activity against final stadium larval stage of Spodoptera littoralis in compound pretreated glass fibre disks assessed as mass of disks eaten at 1 ppm by choice bioassay; format: functional
[2] = system: Spodoptera littoralis; assay: Antifeedant activity against final stadium larval stage of Spodoptera littoralis in compound pretreated glass fibre disks assessed as mass of disks eaten at 10 ppm by choice bioassay; format: functional

SMILES | AFI [1] [%] | AFI [2] [%]
C/C=C(\C)C(=O)O[C@H]1C[C@@H](OC(C)=O)[C@@]2(C(=O)OC)CO[C@H]3[C@H]4O[C@]5(C)[C@H](C6=CCOC6=O)C[C@H](O)[C@]5(O)[C@@]4(C)[C@H]4[C@]1(CO[C@]4(O)C(=O)OC)[C@@H]32 | 41 | 64
C/C=C(\C)C(=O)O[C@H]1C[C@@H](O)[C@@]23CO[C@@H]4[C@@H](O)[C@]5(C)[C@@H]([C@]1(COC2=O)[C@@H]43)[C@](O)(C(=O)OC)O[C@@]51[C@H]2C[C@H]3[C@]4(C=CO[C@H]4O2)O[C@]31C | 22 | 16
C/C=C(\C)C(=O)O[C@H]1C[C@@H](OC(C)=O)[C@@]2(C(=O)OC)CO[C@H]3[C@@H](O)[C@@](C)([C@]45O[C@@]4(C)[C@H]4C[C@@H]5O[C@@H]5OCC[C@@]54O)[C@@H]4[C@@](OC)(C(=O)OC)OC[C@@]14[C@@H]32 | 100 | 100
CCC(C)C(=O)O[C@H]1C[C@@H](OC(C)=O)[C@@]2(C(=O)OC)CO[C@H]3[C@@H](O)[C@@](C)([C@]45O[C@@]4(C)[C@H]4C[C@@H]5O[C@@H]5OCC[C@@]54O)[C@@H]4[C@@](OC)(C(=O)OC)OC[C@@]14[C@@H]32 (some centres undefined) | 98 | 100
C/C=C(\C)C(=O)O[C@H]1C[C@@H](OC(C)=O)[C@@]2(C(=O)OC)CO[C@H]3C(=O)[C@@](C)([C@]45O[C@@]4(C)[C@H]4C[C@@H]5O[C@@H]5OCC[C@@]54O)[C@@H]4[C@@](OC)(C(=O)OC)OC[C@@]14[C@@H]32 | 26 | 100
C/C=C(\C)C(=O)O[C@H]1C[C@@H](OC(C)=O)[C@@]2(C(=O)OC)CO[C@@H]3[C@@H]2[C@]12CO[C@](OC)(C(=O)OC)[C@H]2[C@](C)([C@]12O[C@@]1(C)[C@H]1C[C@@H]2O[C@@H]2OCC[C@@]21O)[C@H]3O | 35 | 46
C/C=C(\C)C(=O)O[C@H]1C[C@@H](OC(C)=O)[C@@]2(C(=O)OC)CO[C@H]3C(=O)[C@@](C)([C@]45O[C@@]4(C)[C@H]4C[C@@H]5OC(=O)OCCC4=O)[C@@H]4[C@@](OC)(C(=O)OC)OC[C@@]14[C@@H]32 | 61 | 63
C/C=C(\C)C(=O)O[C@H]1C[C@@H](OC(C)=O)[C@@]2(C(=O)OC)CO[C@H]3[C@@H](O)[C@@](C)([C@]45O[C@@]4(C)[C@H]4C[C@@H]5O[C@@H]5OCC[C@@]54OC)[C@@H]4[C@@](OC)(C(=O)OC)OC[C@@]14[C@@H]32 | 66 | 95
C/C=C(\C)C(=O)O[C@H]1C[C@@H](OC(C)=O)[C@@]2(C(=O)OC)CO[C@H]3C(=O)[C@@](C)([C@]45O[C@@]4(C)[C@H]4C[C@@H]5O[C@@H]5OCC[C@@]54OC)[C@@H]4[C@@](OC)(C(=O)OC)OC[C@@]14[C@@H]32 | 29 | 100
C/C=C(\C)C(=O)O[C@H]1C[C@@H](OC(C)=O)[C@@]2(C(=O)OC)CO[C@@H]3[C@@H]2[C@]12CO[C@](OC)(C(=O)OC)[C@H]2[C@@]1(C)[C@@]32O[C@H]3C[C@@H]([C@@]4(OC)CCO[C@@H]4OC)[C@@](C)(O2)[C@]31O | 33 | 31
C/C=C(\C)C(=O)O[C@H]1C[C@@H](OC(C)=O)[C@@]2(C(=O)OC)CO[C@H]3C(=O)[C@@](C)([C@]45O[C@@]4(C)[C@H]4C[C@@H]5O[C@@H]5OC=C[C@@]54O)[C@H]4[C@]1(CO[C@]4(O)C(=O)OC)[C@@H]32 [7-KETOAZADIRACHTIN] | 21 | 23
C/C=C(\C)C(=O)O[C@H]1C[C@@H](OC(C)=O)[C@@]2(C(=O)OC)CO[C@H]3[C@@H](O)[C@@](C)([C@]45O[C@@]4(C)[C@@H]4C[C@H]5O[C@@H]5OC=C[C@@]54O)[C@H]4[C@]1(CO[C@]4(O)C(=O)OC)[C@@H]32 [AZADIRACHTIN A] | 99 | 100
